From publication PMC4085797, “Synthetic Inositol Phosphate Analogs Reveal that PPIP5K2 Has a Surface-Mounted Substrate Capture Site that Is a Target for Drug Discovery” (Chemistry & Biology, 2014)
Changes are numbered by the printed parent chain. “Also recorded” adds a separate entry of the source.

Key:
[1] = molecular target: T1, PPIP5K2^KD (kinase domain of human PPIP5K2) (Homo sapiens, UniProt O43314); test: ATPase activity of PPIP5K2KD (Pi release); format: biochemical; conditions: for EC50: dose-response, key of Figure 4A, n = 3, read-out: EC50, stimulation of ATPase activities; for stimulation of ATPase activity (in words): wild-type enzyme
T1 construct: The kinase domain of human PPIP5K2 (PPIP5K2^KD; residues 1–366); made in house
T1 sequence (O43314 1-366): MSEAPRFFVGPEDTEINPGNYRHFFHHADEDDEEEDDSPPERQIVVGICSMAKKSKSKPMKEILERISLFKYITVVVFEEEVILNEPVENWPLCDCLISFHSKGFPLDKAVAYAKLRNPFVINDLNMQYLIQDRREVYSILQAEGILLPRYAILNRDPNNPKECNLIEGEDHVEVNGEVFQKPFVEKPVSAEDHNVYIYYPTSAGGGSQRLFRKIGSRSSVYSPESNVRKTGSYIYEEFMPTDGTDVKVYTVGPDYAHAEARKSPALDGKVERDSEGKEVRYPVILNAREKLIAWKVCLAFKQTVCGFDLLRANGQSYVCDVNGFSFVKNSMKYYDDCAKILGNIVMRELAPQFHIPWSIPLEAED
Description: (§1) The initial InsP6 concentration was either 500 nM, 70 nM, or 40 nM. Various concentrations of 2,5-di-O-Bn-InsP4 were present as indicated. Radioactivity was assessed using an in-line Flo1 detector. The ADP-driven dephosphorylation of 100 nM 1,5-[PP]2-InsP4 by PPIP5K2^KD was usually determined by a luminescence-based assay of ATP accumulation ([Riley et al., 2012; Weaver et al., 2013]). The IC50 values were determined using GraphPad Prism v6.02 (n ≥ 3). In some experiments, 1,5-[PP]2-[^3H]InsP4 dephosphorylation by PPIP5K2^KD was assayed in 50 μl buffer containing 50 mM KCl, 20 mM HEPES pH 7.0, 7 mM MgSO4, 5 mM ADP, 1 mM EDTA. Reactions were then quenched, neutralized, and analyzed with HPLC using a Partisphere SAX column ([Weaver et al., 2013]); 1 ml fractions were collected for liquid scintillation spectrometry. The ATPase activity of PPIP5K2^KD (10–270 μg/ml) was assayed from Pi release following incubation at 37°C for 120–180 min in 20 μl reaction mixtures containing 20 mM Tris/HCl, pH 7.5, 10 mM ATP, 100 mM KCl, 0.1 mM EDTA, and 13 mM MgCl2.

[2] = molecular target: T1, PPIP5K2^KD (kinase domain of human PPIP5K2); test: Reverse-kinase assay: ADP-driven dephosphorylation of 1,5-[PP]2-InsP4, luminescence-based assay of ATP accumulation; format: biochemical; conditions: for inhibition of [PP]2-InsP4 metabolism (in words): 100 nM 1,5-[PP]2-InsP4, Figure 4B; for IC50: 100 nM [PP]2-InsP4, key of Figure 4B, n = 3, read-out: IC50, inhibition of ADP-driven dephosphorylation of [PP]2-InsP4
Description: The six compounds that were selected for the dose-response curves in the assays of ATP hydrolysis (Figure 4A) were now investigated for their effects upon diphosphoinositol polyphosphate metabolism by PPIP5K2^KD (Figure 4B). We used a high-throughput reverse-kinase assay that records ATP generated from ADP during the dephosphorylation of 100 nM 1,5-[PP]2-InsP4 ([Riley et al., 2012; Weaver et al., 2013]). Each of the tested analogs inhibited [PP]2-InsP4 metabolism by PPIP5K2^KD (Figure 4B). […] However, the inhibition by 2,5-di-O-Bn-InsP4 (10) was more unexpected because due to its bulk, and its less negative charge compared to physiological substrates, we predict it to be a poor ligand for the active site of the highly specific PPIP5K2^KD ([Wang et al., 2012]). Nevertheless, its ability to inhibit reverse-kinase activity was directly confirmed by high-performance liquid chromatography (HPLC) analysis of [PP]2-[^3H]InsP4 dephosphorylation (Figures S1A–S1C available online).
as §1

[3] = molecular target: T1, PPIP5K2^KD (kinase domain of human PPIP5K2); set-up: method as in Weaver et al., 2013; conditions: 25 μM; ref Weaver et al., 2013; cited from earlier work
[4] = molecular target: T2, human PPIP5K2^KD (Homo sapiens, UniProt O43314); set-up: method as in Weaver et al., 2013; conditions: ref Weaver et al., 2013; cited from earlier work
T2 construct: The kinase domain of human PPIP5K2 (PPIP5K2^KD; residues 1–366); made in house
T2 sequence (O43314 1-366): T1 sequence (O43314 1-366)

[5] = molecular target: T3, human IP6K2 (Homo sapiens, UniProt Q9UHH9); set-up: method as in Saiardi et al., 2000; conditions: ref Saiardi et al., 2000; cited from earlier work
T3 construct: Full-length human IP6K2, the kinase domain of human PPIP5K2; made in house
T3 sequence (Q9UHH9 1-426): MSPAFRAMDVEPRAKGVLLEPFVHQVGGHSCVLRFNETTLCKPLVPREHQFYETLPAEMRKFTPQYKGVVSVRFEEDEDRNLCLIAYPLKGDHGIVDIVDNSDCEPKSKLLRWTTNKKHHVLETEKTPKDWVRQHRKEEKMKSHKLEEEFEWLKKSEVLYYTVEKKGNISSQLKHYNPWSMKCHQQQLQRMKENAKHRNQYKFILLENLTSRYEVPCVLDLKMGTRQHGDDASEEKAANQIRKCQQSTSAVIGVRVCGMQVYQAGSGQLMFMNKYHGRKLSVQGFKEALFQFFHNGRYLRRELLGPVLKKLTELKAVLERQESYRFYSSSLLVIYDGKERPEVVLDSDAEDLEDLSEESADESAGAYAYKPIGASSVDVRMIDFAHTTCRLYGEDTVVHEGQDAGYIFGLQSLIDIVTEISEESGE

[6] = molecular target: T4, PPIP5K2^KD R213A mutant (Homo sapiens, UniProt O43314, R213A); set-up: method as in Weaver et al., 2013; conditions: R213A mutation; ref Weaver et al., 2013; cited from earlier work
T4 construct: The kinase domain of human PPIP5K2 (PPIP5K2^KD; residues 1–366); made in house
T4 sequence (O43314 1-366 R213A): T1 sequence (O43314 1-366) with R213A

[7] = molecular target: T5, PPIP5K2^KD E192G mutant (Homo sapiens, UniProt O43314, E192G); test: ATPase activity of E192G mutant; format: biochemical
T5 construct: The kinase domain of human PPIP5K2 (PPIP5K2^KD; residues 1–366); made in house
T5 sequence (O43314 1-366 E192G): T1 sequence (O43314 1-366) with E192G
Description: as §1
Protein Expression, Purification, Crystallization and Structure Determination […]
(§2) The structure was further manually rebuilt with COOT and refined with PHENIX and
(§3) REFMAC from the CCP4 package. Ligand topology and parameter files were prepared using
(§4) the PRODRG server. The molecular graphics representations were prepared with the program
(§5) PyMol (Schrödinger, LLC). The 2D ligand-protein interaction diagrams were generated by
(§6) LigPlot+. Atomic coordinates and structure factors have been deposited with the Protein Data
(§7) Bank with accession codes: 4NZM, 4NZN, 4NZO.
(§8) Mutants were generated using a site-directed mutagenesis kit (Stratagene). Pairs of complementary
primers were designed as shown below, with mutagenic primers underlined (only 5’ primers are
All mutated constructs were sequenced. Mutant proteins were expressed and purified as for wild-

[8] = molecular target: T6, PPIP5K2^KD E192Q mutant (Homo sapiens, UniProt O43314, E192Q); test: ATPase activity of E192Q mutant; format: biochemical; conditions: 25 μM, Figure 7E
T6 construct: The kinase domain of human PPIP5K2 (PPIP5K2^KD; residues 1–366); made in house
T6 sequence (O43314 1-366 E192Q): T1 sequence (O43314 1-366) with E192Q
Description: as §1
Protein Expression, Purification, Crystallization and Structure Determination
Full-length human IP6K2, the kinase domain of human PPIP5K2 (PPIP5K2KD; residues 1-
366), and the N-terminally truncated domain used for the crystallography studies (residues
41-366) were all sub-cloned, expressed and purified as before (Wang et al., 2012; Weaver et
al., 2013). […]
as §2, §3, §4, §5, §6, §7, §8
primers were designed as shown below, with mutagenic primers underlined (only 5’ primers are […]

**Q.** Which “stimulation of ATP hydrolysis” value ([1]; 25 μM analog) does the source give for `O=C(CP(=O)(O)O)O[C@@H]1[C@@H](OP(=O)(O)O)[C@H](OP(=O)(O)O)[C@H](OP(=O)(O)O)[C@H](OP(=O)(O)O)[C@H]1OP(=O)(O)O` [compound 1, 5-O-α-phosphonoacetyl-myo-inositol 1,2,3,4,6-pentakisphosphate] here?
**A.** 5 fold

**Q.** And the EC50 [1]?
**A.** 1.2 µM

**Q.** And the “inhibition of [PP]2-InsP4 metabolism (in words)” value [2]?
**A.** most potent inhibitor

**Q.** And the IC50 [2]?
**A.** 0.14 µM

**Q.** Which “stimulation of ATPase activity (in words)” value (“stimulation … (in words)” below) ([1]; 25 μM, Figure 2) does the source give for `O=P(O)(O)O[C@@H]1[C@@H](OP(=O)(O)O)[C@H](OP(=O)(O)O)[C@H](OCc2ccccc2)[C@H](OP(=O)(O)O)[C@H]1OP(=O)(O)O` [compound 7, 2-O-Bn-InsP5] here?
**A.** less effective than was 2-O-Bn-5-PA-InsP4; also recorded: roughly doubling the rate of ATP hydrolysis that is induced by InsP6

**Q.** What about the EC50 [1] of the same compound?
**A.** 2.2 µM

**Q.** And the “less potent than 2-O-Bn-5-PA-InsP4 (2) at stimulating ATPase activity” value ([1]; from EC50 values, Figure 4A)?
**A.** 4 fold

**Q.** What about the “inhibition of [PP]2-InsP4 metabolism (in words)” value [2] of the same compound?
**A.** equally efficient

**Q.** And the IC50 [2]?
**A.** 0.44 µM

**Q.** With `O=P(O)(O)O[C@@H]1[C@@H](OP(=O)(O)OP(=O)(O)O)[C@H](OP(=O)(O)O)[C@@H](OP(=O)(O)O)[C@@H](O)[C@H]1OP(=O)(O)O` [compound 9, 5-PP-InsP4] as the compound, how does the “stimulation … (in words)” value ([1]; 25 μM, Figure 2) read?
**A.** about half the rate shown by 2-O-Bn-5-PP-InsP4 (8)

**Q.** And the EC50 [1]?
**A.** 8.8 µM

**Q.** And the IC50 [2]?
**A.** 2.4 µM

**Q.** Which “stimulation … (in words)” value ([1]; 25 μM, Figure 2) does the source give for `NCCO[C@H]1[C@@H](OP(=O)(O)O)[C@H](OP(=O)(O)O)[C@@H](OP(=O)(O)O)[C@H](OP(=O)(O)O)[C@H]1OP(=O)(O)O` [compound 6, 2-O-(2-aminoethyl)-InsP5] here?
**A.** did not stimulate ATPase activity

**Q.** With `O=P(O)(O)O[C@@H]1[C@@H](OP(=O)(O)O)[C@H](OP(=O)(O)O)[C@H](O)[C@H](OP(=O)(O)O)[C@H]1OP(=O)(O)O` [Ins(1,3,4,5,6)P5] as the compound, how does the “activation of substrate-stimulated ATPase activity” value [3] read?
**A.** 2- to 3 fold

**Q.** What does the source list for `O=P(O)(O)O[C@H]1[C@H](OP(=O)(O)O)[C@@H](OP(=O)(O)O)[C@H](OP(=O)(O)O)[C@@H](OP(=O)(O)O)[C@H]1OP(=O)(O)O` [InsP6]?
**A.** activation of substrate-stimulated ATPase activity [3]: 2- to 3 fold; affinity for InsP6 phosphorylation by PPIP5K2^KD [4]: 0.39 µM; affinity of IP6K2 for InsP6 [5]: 430 nM; InsP6-stimulated ATPase activity (in words) [6]: abolished

**Q.** With `CCCC(=O)O[C@H]1[C@@H](OP(=O)(O)O)[C@H](OP(=O)(O)O)[C@@H](OP(=O)(O)O)[C@H](OP(=O)(O)O)[C@H]1OP(=O)(O)O` [compound 5, 2-O-butanoyl-InsP5] as the compound, how does the “stimulation … (in words)” value ([1]; 25 μM, Figure 2) read?
**A.** sharp reduction in activity

**Q.** With `O=C(CP(=O)(O)O)O[C@@H]1[C@@H](OP(=O)(O)O)[C@H](OP(=O)(O)O)[C@H](O)[C@H](OP(=O)(O)O)[C@H]1OP(=O)(O)O` [compound 3, 5-PA-InsP4] as the compound, how does the “stimulation … (in words)” value ([1]; 25 μM, Figure 2) read?
**A.** dramatically reduced

**Q.** What does the source list for `O=P(O)(O)O[C@@H]1[C@H](OCc2ccccc2)[C@H](OP(=O)(O)O)[C@@H](OP(=O)(O)O)[C@H](OP(=O)(O)OP(=O)(O)O)[C@H]1OP(=O)(O)O` [compound 8, 2-O-Bn-5-PP-InsP4]?
**A.** more effective at stimulating ATPase activity than 2-O-Bn-5-PA-IP4 (2) ([1]; 25 μM, Figure 2): 20%; EC50 [1]: 2.6 µM; IC50 [2]: 0.5 µM; rate of ligand-stimulated ATPase activity vs wild-type (in words) [7]: neither of these particular mutations altered the rate; rate of ligand-stimulated ATPase activity vs wild-type (in words) [8]: neither of these particular mutations altered the rate

**Q.** For `O=C(O[C@H]1[C@@H](OP(=O)(O)O)[C@H](OP(=O)(O)O)[C@@H](OP(=O)(O)O)[C@H](OP(=O)(O)O)[C@H]1OP(=O)(O)O)c1ccccc1` [compound 4, 2-O-benzoyl-InsP5], which “stimulation … (in words)” value ([1]; 25 μM, Figure 2) is on record?
**A.** only a minimal reduction in ATPase-stimulating activity
